Test results published in patent US7341749B2, “Flavopereirine and alstonine combinations in the treatment and prevention of prostate cancer” (Natural Source International Ltd., priority 2004, dated 2008).

System: LNCaP cells
Test: Induction of apoptosis (PARP cleavage, Caspase-3 activity)
Format: cell-based, human
Settings: inferred from the extract experiments

## COC(=O)C1=CO[C@@H](C)[C@@H]2Cn3ccc4c5ccccc5nc-4c3C[C@H]12 [alstonine]
  induction of the apoptosis pathway (mechanism of action of the active compound): relatively minor effect

## CCc1ccc2c3[nH]c4ccccc4c3cc[n+]2c1 [flavopereirine]
  induction of the apoptosis pathway (mechanism of action of the active compound): primary mechanism of action
